Experimental data taken from PubChem BioAssay AID330 (DTP/NCI, 2004).
Where “and” joins values, the source holds several entries; their conditions need not be identical. Equal values may be shown once. Inconclusive results and toxic doses are left out. Peptide text beside a SMILES is read from it. * marks the point of attachment. Cbz = O=C(OCc1ccccc1)*

Tested on: P388 leukemia ip, CD2F1 mice, survival T/C
Test: NCI In Vivo Anticancer Drug Screen. Data for tumor model P388 Leukemia (intraperitoneal) in CD2F1 (CDF1) mice
Settings: endpoint: median survival time, higher = longer survival
How it was run: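 Mice carrying the transplanted tumor received test compound or vehicle. Survival was recorded in each group, and the value is the treated-group measurement divided by that of the vehicle-treated control group.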

[1] = dose: 50.0 mg/kg/injection, schedule: Q01DX005 (ip), vehicle: saline
[2] = dose: 50.0 mg/kg/injection, schedule: Q01DX005 (ip), vehicle: Klucel (hydroxypropylcellulose) (HPC)
[3] = dose: 100.0 mg/kg/injection, schedule: Q01DX005 (ip), vehicle: Klucel (hydroxypropylcellulose) (HPC)
[4] = dose: 100.0 mg/kg/injection, schedule: Q04DX003 (ip), vehicle: Klucel (hydroxypropylcellulose) (HPC)
[5] = dose: 60.0 mg/kg/injection, schedule: Q01DX005 (ip), vehicle: saline
[6] = dose: 120.0 mg/kg/injection, schedule: Q01DX005 (ip), vehicle: saline
[7] = dose: 50.0 mg/kg/injection, schedule: Q01DX005 (ip), vehicle: saline with Tween-80
[8] = dose: 100.0 mg/kg/injection, schedule: Q01DX005 (ip), vehicle: saline with Tween-80
[9] = dose: 200.0 mg/kg/injection, schedule: Q01DX005 (ip), vehicle: saline with Tween-80
[10] = dose: 60.0 mg/kg/injection, schedule: Q01DX005 (ip), vehicle: saline with Tween-80
[11] = dose: 120.0 mg/kg/injection, schedule: Q01DX005 (ip), vehicle: saline with Tween-80
[12] = dose: 240.0 mg/kg/injection, schedule: Q01DX005 (ip), vehicle: saline with Tween-80
[13] = dose: 50.0 mg/kg/injection, schedule: Q01DX009 (ip), vehicle: saline
[14] = dose: 100.0 mg/kg/injection, schedule: Q04DX003 (ip), vehicle: saline with Tween-80
[15] = dose: 200.0 mg/kg/injection, schedule: Q04DX003 (ip), vehicle: saline with Tween-80
[16] = dose: 200.0 mg/kg/injection, schedule: Q01DX005 (ip), vehicle: Klucel (hydroxypropylcellulose) (HPC)

## c1ccc(Cc2ncnc3nc[nH]c23)cc1
dose: 2.5 mg/kg/injection, schedule: Q01DX009 (ip), vehicle: saline with Tween-80
  T/C: 111 % of control
dose: 5.0 mg/kg/injection, schedule: Q01DX009 (ip), vehicle: saline with Tween-80
  T/C: 111 % of control
dose: 10.0 mg/kg/injection, schedule: Q01DX009 (ip), vehicle: saline with Tween-80
  T/C: 111 % of control
dose: 20.0 mg/kg/injection, schedule: Q01DX009 (ip), vehicle: saline with Tween-80
  T/C: 105 % of control and 107 % of control and 110 % of control
dose: 40.0 mg/kg/injection, schedule: Q01DX009 (ip), vehicle: saline with Tween-80
  T/C: 98 % of control and 103 % of control
dose: 80.0 mg/kg/injection, schedule: Q01DX009 (ip), vehicle: saline with Tween-80
  T/C: 110 % of control and 111 % of control and 91 % of control
dose: 160.0 mg/kg/injection, schedule: Q01DX009 (ip), vehicle: saline with Tween-80
  T/C: 95 % of control

## CC(CC(C)C)=NC(C)CC(C)C (stereo not drawn)
[1]
  T/C: 97 % of control
dose: 100.0 mg/kg/injection, schedule: Q01DX005 (ip), vehicle: saline
  T/C: 95 % of control

## NC(Cc1ccc(O)cc1)C(=O)N/N=C/c1ccccc1Cl (stereo not drawn)
[2]
  T/C: 100 % of control
[3]
  T/C: 106 % of control

## CC(C)C1(C(=O)NNC(=O)CCCc2ccc(N(CCCl)CCCl)cc2)OC2(O)CCCCCN2C1=O (stereo not drawn)
dose: 6.25 mg/kg/injection, schedule: Q04DX003 (ip), vehicle: Klucel (hydroxypropylcellulose) (HPC)
  T/C: 109 % of control
dose: 12.5 mg/kg/injection, schedule: Q04DX003 (ip), vehicle: Klucel (hydroxypropylcellulose) (HPC)
  T/C: 121 % of control
[4]
  T/C: 184 % of control

## Oc1ccc2[nH]cc(CCNCC3(O)OCC(O)C(O)C3O)c2c1 (stereo not drawn)
[5]
  T/C: 98 % of control
[6]
  T/C: 101 % of control
dose: 240.0 mg/kg/injection, schedule: Q01DX005 (ip), vehicle: saline
  T/C: 91 % of control

## COc1cc2oc(-c3ccc(O)cc3O)c(CC=C(C)C)c(=O)c2c(O)c1/C=C/C(C)C
dose: 1.56 mg/kg/injection, schedule: Q01DX009 (ip), vehicle: Klucel (hydroxypropylcellulose) (HPC)
  T/C: 107 % of control
dose: 3.12 mg/kg/injection, schedule: Q01DX009 (ip), vehicle: Klucel (hydroxypropylcellulose) (HPC)
  T/C: 105 % of control
dose: 6.25 mg/kg/injection, schedule: Q01DX009 (ip), vehicle: Klucel (hydroxypropylcellulose) (HPC)
  T/C: 100 % of control
dose: 12.5 mg/kg/injection, schedule: Q01DX009 (ip), vehicle: Klucel (hydroxypropylcellulose) (HPC)
  T/C: 98 % of control

## Oc1ccc2ccccc2c1C(c1ccc(Cl)cc1)c1c(O)ccc2ccccc12
[7]
  T/C: 100 % of control
[8]
  T/C: 101 % of control
[9]
  T/C: 107 % of control

## CC(NC(=O)C(N)Cc1ccc(Cl)cc1)P(=O)(O)O (stereo not drawn)
dose: 12.5 mg/kg/injection, schedule: Q04DX002 (ip), vehicle: saline with Tween-80
  T/C: 100 % of control
dose: 25.0 mg/kg/injection, schedule: Q04DX002 (ip), vehicle: saline with Tween-80
  T/C: 94 % of control
dose: 50.0 mg/kg/injection, schedule: Q04DX002 (ip), vehicle: saline with Tween-80
  T/C: 103 % of control

## COC(=O)C1(CC(=O)c2ccco2)NC(=S)NC(=O)C1C#N (stereo not drawn)
[10]
  T/C: 98 % of control
[11]
  T/C: 94 % of control
[12]
  T/C: 93 % of control

## COc1cc(C)c(S(C)=O)cc1OC (stereo not drawn)
[13]
  T/C: 98 % of control
dose: 100.0 mg/kg/injection, schedule: Q01DX009 (ip), vehicle: saline
  T/C: 90 % of control
dose: 200.0 mg/kg/injection, schedule: Q01DX009 (ip), vehicle: saline
  T/C: 98 % of control

## CNC(=O)c1c(-c2ccc(F)cc2)noc1C
[10]
  T/C: 103 % of control
[11]
  T/C: 100 % of control
[12]
  T/C: 103 % of control

## COc1nsc2ccc(C(C)C(N)=O)cc12 (stereo not drawn)
[10]
  T/C: 100 % of control
[11]
  T/C: 97 % of control
[12]
  T/C: 89 % of control

## COC(=O)C(CC(C)C)NC(=O)C(CO)NC(=O)OCc1ccccc1 (stereo not drawn) (Cbz-Ser-Leu-OMe; configuration not given here)
[7]
  T/C: 100 % of control
[8]
  T/C: 99 % of control
[9]
  T/C: 100 % of control

## O=C1OC(C(F)(F)F)=NC1Cc1ccccc1 (stereo not drawn)
[14]
  T/C: 107 % of control
[15]
  T/C: 98 % of control
dose: 400.0 mg/kg/injection, schedule: Q04DX003 (ip), vehicle: saline with Tween-80
  T/C: 101 % of control

## OC1c2ccccc2C(O)c2c1ccc1c2CN(Cc2ccccc2)CC1 (stereo not drawn)
dose: 60.0 mg/kg/injection, schedule: Q01DX005 (ip), vehicle: Klucel (hydroxypropylcellulose) (HPC)
  T/C: 89 % of control
dose: 120.0 mg/kg/injection, schedule: Q01DX005 (ip), vehicle: Klucel (hydroxypropylcellulose) (HPC)
  T/C: 92 % of control
dose: 240.0 mg/kg/injection, schedule: Q01DX005 (ip), vehicle: Klucel (hydroxypropylcellulose) (HPC)
  T/C: 92 % of control

## CCOP(=O)(O)OCC.CCOP(=O)(O)OCC.[O]=[V]
dose: 100.0 mg/kg/injection, schedule: Q01DX001 (ip), vehicle: Klucel (hydroxypropylcellulose) (HPC)
  T/C: 100 % of control
dose: 200.0 mg/kg/injection, schedule: Q01DX001 (ip), vehicle: Klucel (hydroxypropylcellulose) (HPC)
  T/C: 100 % of control

## c1ccc(-c2nc3ccccc3[nH]2)nc1
dose: 25.0 mg/kg/injection, schedule: Q04DX003 (ip), vehicle: Klucel (hydroxypropylcellulose) (HPC)
  T/C: 101 % of control
dose: 50.0 mg/kg/injection, schedule: Q04DX003 (ip), vehicle: Klucel (hydroxypropylcellulose) (HPC)
  T/C: 96 % of control
dose: 100.0 mg/kg/injection, schedule: Q01DX009 (ip), vehicle: Klucel (hydroxypropylcellulose) (HPC)
  T/C: 115 % of control
[4]
  T/C: 101 % of control
dose: 200.0 mg/kg/injection, schedule: Q01DX009 (ip), vehicle: Klucel (hydroxypropylcellulose) (HPC)
  T/C: 99 % of control
dose: 200.0 mg/kg/injection, schedule: Q04DX003 (ip), vehicle: Klucel (hydroxypropylcellulose) (HPC)
  T/C: 93 % of control
dose: 400.0 mg/kg/injection, schedule: Q01DX009 (ip), vehicle: Klucel (hydroxypropylcellulose) (HPC)
  T/C: 101 % of control

## Cc1ccc(NC(=O)N(CCCCl)N=O)cc1
dose: 50.0 mg/kg/injection, schedule: Q01DX009 (ip), vehicle: saline with Tween-80
  T/C: 86 % of control
[14]
  T/C: 95 % of control
dose: 200.0 mg/kg/injection, schedule: Q01DX009 (ip), vehicle: saline with Tween-80
  T/C: 100 % of control
[15]
  T/C: 90 % of control

## Cc1cc(=O)oc2ccc(C(=O)/C=C/N(C)C)c(O)c12
[10]
  T/C: 96 % of control
[11]
  T/C: 92 % of control
[12]
  T/C: 89 % of control

## COc1cc(CCN=Cc2ccccc2O)c([N+](=O)[O-])cc1OC
[2]
  T/C: 97 % of control
[3]
  T/C: 100 % of control
[16]
  T/C: 92 % of control

## NC(CCC(=O)NC(CSSCC(NC(=O)CCC(N)C(=O)O)C(=O)O)C(=O)O)C(=O)O (stereo not drawn)
dose: 12.5 mg/kg/injection, schedule: Q01DX005 (ip), vehicle: saline
  T/C: 94 % of control
dose: 25.0 mg/kg/injection, schedule: Q01DX005 (ip), vehicle: saline
  T/C: 99 % of control
[1]
  T/C: 99 % of control

## O=[N+]([O-])c1c(Sc2ncccn2)ncnc1Sc1ncccn1
dose: 3.12 mg/kg/injection, schedule: Q01DX009 (ip), vehicle: saline with Tween-80
  T/C: 105 % of control
dose: 6.25 mg/kg/injection, schedule: Q01DX009 (ip), vehicle: saline with Tween-80
  T/C: 115 % of control
dose: 12.5 mg/kg/injection, schedule: Q01DX009 (ip), vehicle: saline with Tween-80
  T/C: 113 % of control
dose: 12.5 mg/kg/injection, schedule: Q01DX009 (ip), vehicle: saline
  T/C: 114 % of control
dose: 25.0 mg/kg/injection, schedule: Q01DX009 (ip), vehicle: saline
  T/C: 114 % of control
[13]
  T/C: 108 % of control

## O=C(/C=C/c1ccccc1)OCC1=C[C@@H](O)[C@@H]2C=CO[C@@H](OC3OC(CO)C(O)C(O)C3O)[C@H]12 (stereo partly drawn)
dose: 12.5 mg/kg/injection, schedule: Q01DX005 (ip), vehicle: Klucel (hydroxypropylcellulose) (HPC)
  T/C: 100 % of control
dose: 25.0 mg/kg/injection, schedule: Q01DX005 (ip), vehicle: Klucel (hydroxypropylcellulose) (HPC)
  T/C: 93 % of control
[2]
  T/C: 112 % of control
[3]
  T/C: 118 % of control
[16]
  T/C: 115 % of control

## CN(C)CCO[Si](C)(C)[CH2][Sn]([CH3])([CH3])[CH3]
[5]
  T/C: 108 % of control
[6]
  T/C: 105 % of control
